Experimental data as given in patent publication EP0167553B1, “NEW THERAPEUTICAL APPLICATION OF AN INDANE DIONE DERIVATIVE AND PHARMACEUTICAL COMPOSITIONS INTENDED TO SAID UTILIZATION” (priority 1983, dated 1985).
“And” between values parts separate entries of the source, which are not always exact repeats. Equal entries are not always repeated. Where two headings read alike, the source gives them in different places.

Assays:
Rats: Wistar femelles [1] = assay: Atherogenic diet (modified Aubert technique): biochemical examinations and atherogenic risk; type: in vivo, Rat Wistar; set-up: score général Biochimie / Risque athérogène Score Total: scale not given here; conditions: for Cholesterol LDL Cholesterol HDL Score / Cholesterol T/ Cholesterol HDL Score: atherogenic risk ratio; for score général Biochimie: sum of the individual biochemical scores
Description: (§1) La technique utilisée est celle, légèrement modifiée, de AUBERT D., FERAUD J.C., LACAZE B., PEPINO., PANAK E. et PODESTA M. "Athérogénèse expérimentale chez le Rat Wistar". ATHEROSCLEROSIS 2Q (1974) 263 - 280.
(§2) • - Rats: Wistar femelles, E.O.P.S. en provenance de l'élevage EVIC-CEBA. • - Poids corporel: 160 180 g au départ de l'étude • - Alimentation: UAR A03, enrichi en cholestérol (0,5 %) et en Acide chloique (0,5 %). • - Eau de boisson: eau de ville. • - 15 animaux par lot et par cage MAKROLON SAFI® de 59 x 38,5 cm sur litière de copeaux de bois blanc dépoussiérés. • - Cages placées dans un module animalerie climatisé (20°C * 1°C), à l'humidité constante (50 % ± 10 %). Durée d'éclairement: 12 heures par jour (7 h à 19 h). • - Administration des produits: Après 15 jours de régime athéromateux, on leur administre par voie orale pendant 4 jours 250 000 Ul/kg de vitamine D2 (Stérogyl 15 H) en solution dans l'huile d'olive. On administre ensuite les produits à étudier pendant 4 semaines dès la fin de l'administration de l'agent lésionnel.
(§3) L'étude porte sur 5 Lots de 15 rats (tableau N° IV)
En fin d'étude, on pratique sur tous les animaux survivants les examens suivants: • - Cholestérol total, • - Cholestérol estérifié, • - Cholestérol HDL • - Cholestérol LDL (évaluation), • - Lipides totaux, • - Triglycérides.

[2] = Acute toxicity, single administration, digestive (oral) route; type: in vivo; conditions: mouse, in vivo, po
Description: Souris SWISS mâles et femelles de 22 à 25g de poids corporel. Animaux EOPS. (exempte d'organisme pathogène spécifique), en provenance de l'élevage CERJ., 53680 LE GENEST et acclimatés au moins 8 jours à l'animalerie du laboratoire.
(§4) Sauf mention contraire précisée dans les tableaux de résultats, 10 animaux par dose, sexe et cage en MAKROLON SAFI@ de 40/25 cm. Litière de copeaux de bois blanc. Alimentation standard pour rats et souris UAR et eau ordinaire à volonté.
(§5) Ils sont administrés sans jeûne préalable: • - par voie digestive (intubation gastrique par sonde oesophagienne métallique) à raison de 0,5 ml ou 1 ml pour 20 g de poids corporel d'une suspension aqueuse à 3p.100 en gomme arabique du dérivé testé. • - par voie intrapéritonéale à raison de 0,5 ml ou 1 ml pour 20 g d'une suspension du dérivé testé dans le soluté isotonique de chlorure de sodium à 3p.100 en gomme arabique.
(§6) Pendant 6 heures après l'administration unique, puis tous les jours pendant 15 jours.
(§7) S'il y a lieu, les doses létales cinquante (DL50) sont calculées selon les méthodes de: • - Behrens et Karber (B.K.) • - Miller et Tainter (M.T.), cette dernière méthode permettant d'attribuer, pour le seuil de probabilité de P = 0,05 un intervalle de confiance aux DL 50.
(§8) En outre, sont déterminées les DLO et DL100. • - DLO = DMT: Dose Maxima toujours tolérée • - DL100 = DmM: Dose minima toujours Mortelle.

Rats: Wistar femelles [3] = assay: Atherogenic diet (modified Aubert technique): mortality, body weight, tolerance, overall score; type: in vivo, Rat Wistar; conditions: 100 mg/kg; for taux de mortalité: lots of 15 rats on atherogenic diet; for Score Total: sum of Biochimie, Risque athérogène, Macroscopie, Histologie
Protocol: as §2, §3
• - Le comportement et l'[…] pondérale des animaux sont étudiés par l'observation quotidienne et les pesées hebdomadaires. L'étude de l'évolution pondérale ne montre pas de différence significative entre les différents lots. C'est un indice de bonne tolérance du traitement. • - La moralité est notée dans chaque lot; elle peut atteindre 30 % des animaux ce qui nécessite des lots de 15 animaux. L'administration chronique de 100 mg/kg de Clofibrate correspond à la dose maximale tolérée par le Rat sain selon nos expériences personnelles.
Les scores obtenus par les différents produits étudiés sont les suivants (Tableau V)

Rats: Wistar femelles [4] = assay: Atherogenic diet (modified Aubert technique): macroscopic examination of the aorta; type: in vivo, Rat Wistar; conditions: for Intensité des lésions Cotation: scale Stade 0 to Stade 5
Description: as §1, §2
En fin d'étude, tous les animaux sont sacrifiés par ponction subtotale du sang à l'aorte abdominale après anesthésie au pentobarbital sodique. On prélève le coeur, le foie et l'aorte sur laquelle on effectue la cotation du pouvoir athérogène. Pour ce faire, les aortes sont coupées longitudinalement puis étalées pour permettre une vue d'ensemble du revêtement endothélial depuis les valvules aortiques jusqu'à la bifurcation du tronc coeliaque (segment inférieur de l'aorte thoracique).
L'aorte est séparée en 2 zones: • - Zone 1: Valvules aortiques - premières artères intercostales • - Zone 2: premières artères intercostales - bifurcation du tronc coeliaque.
L'intensité des dépôts athéromateux est évaluée selon les critères suivants: • - Stade 0: Absence de dépôts • - Stade 1: Dépôts discrets ([…]) peu nombreux • - Stade 2: Dépôts discrets nombreux • - Stade 3: Dépôts importants (> 1 mm) nombreux • - Stade 4: Dépôts très importants ou très nombreux mais laissant quelques zones non infiltrées. • - Stade 5: Dépôts sur tout l'endothélium.
Deux paramètres sont à prendre en considération: • 1. Le nombre d'animaux présentant des lésions macroscopiques, dont le pourcentage d'animaux atteints. • 2. L'intensité des lésions observées cotées selon les indications fournies précédemment.

Souris SWISS = assay: Acute toxicity, single administration, intraperitoneal route; type: in vivo; conditions: for DLO: DLO = Dose Maxima toujours tolérée
Protocol: (§9) Souris SWISS mâles et femelles de 22 à 25g de poids corporel. Animaux EOPS.
as §4, §5, §6, §7, §8

[5] = as above; type: in vivo; conditions: mouse, in vivo, ip; for LD50 at 360 h: read-out: DL50; for mortality at 360 h: single dose
Protocol: as §9, §4, §5, §6, §7, §8

[6] = 100 mg/kg, 4 weeks, score relative to Clofibrate (Base 1)
[7] = compared with Clofibrate at the same dose

## CCOC(=O)C(C)(C)Oc1ccc(Cl)cc1 [Clofibrate]
Rats: Wistar femelles [1]; 100 mg/kg
  Cholesterol LDL Cholesterol HDL Score/Clofibrate: 1.00
  Cholesterol T/ Cholesterol HDL Score/Clofibrate: 1.00
  Risque athérogène Score Total: 2
  Cholesterol LDL Cholesterol HDL Score: 5.35
  Cholesterol T/ Cholesterol HDL Score: 6.69
  score général Biochimie: 6
Rats: Wistar femelles [1]; [6]
  Cholesterol E Score: 1.00
  Cholesterol HDL Score: 1.00
  Cholesterol LDL Score: 1.00
  Cholesterol T Score: 1.00
  Lipides totaux Score: 1.00
  Triglycerides Score: 1.00
[2]; DL50
  LD50 at 360 h: 2500 ± 235 mg/kg
Rats: Wistar femelles [3]
  taux de mortalité: 4/15
  Score Total: 13.00
Rats: Wistar femelles [4]; 100 mg/kg
  Intensité des lésions Cotation: 2.00
Souris SWISS; mouse, in vivo, ip, 21600 min
  DL50: ~1700 mg/kg
[5]; voie intrapéritonéale, mâles, "de l'ordre de"
  LD50 at 360 h: ~1850 mg/kg

## COc1ccc(C(=O)CC2(O)C(=O)c3ccccc3C2=O)cc1OC [Produit de l'invention, 2-[(3,4-dimethoxybenzoyl)methyl] 2-hydroxy 1,3-dioxo indane]
Rats: Wistar femelles [1]; 100 mg/kg
  Cholesterol LDL Cholesterol HDL Score/Clofibrate: 0.46
  Cholesterol T/ Cholesterol HDL Score/Clofibrate: 0.44
  Risque athérogène Score Total: 0.90
  Cholesterol LDL Cholesterol HDL Score: 15.63
  Cholesterol T/ Cholesterol HDL Score: 17.81
  score général Biochimie: 5.6 and 5.67
Rats: Wistar femelles [1]; [6]
  Cholesterol E Score: 1.05
  Cholesterol LDL Score: 1.04
  Cholesterol T Score: 1.14
  Lipides totaux Score: 1.37
  Triglycerides Score: 1.07
Rats: Wistar femelles [1]; [7]
  activité sur les paramètres biochimiques: aussi actif que le Clofibrate
Rats: Wistar femelles [1]; dès la dose de 100 mg/kg
  activité anti-lipémiante: nette activité anti-lipémiante
[2]; VO, souris mâles et femelles, read-out: DL50
  LD50 at 360 h: > 10000 mg/kg
Rats: Wistar femelles [3]
  taux de mortalité: 2/15
  Score Total: 10.46
Rats: Wistar femelles [4]; 100 mg/kg
  Animaux Atteints Score Clofibrate: 1.69
  Intensité des lésions Score Clofibrate: 0.88
  Observations Macroscopiques Score Total: 2.57
  Intensité des lésions Cotation: 2.08
Rats: Wistar femelles [4]; 100 mg/kg, animals with macroscopic lesions
  Animaux Atteints %: 69.23%
Rats: Wistar femelles [4]; [7]
  activité sur l'évalution des lésions macroscopiques: plus actif
Souris SWISS; IP, Souris Femelles
  DLO: 2000 mg/kg
Souris SWISS; IP, Souris Mâles
  DLO: 2000 mg/kg
Souris SWISS; IP, time to death after injection
  La mort survient par arrêt respiratoire en: 24 - 48 heures
[5]; 2000 mg/kg, 2000 mg/kg IP, read-out: Létalite sur 10 souris Femelles
  mortality at 360 h: 0%
[5]; 2000 mg/kg, 2000 mg/kg IP, read-out: Létalite sur 10 souris Mâles
  mortality at 360 h: 0%
[5]; 2500 mg/kg, 2500 mg/kg IP, read-out: Létalite sur 10 souris Femelles
  mortality at 360 h: 10%
[5]; 2500 mg/kg, 2500 mg/kg IP, read-out: Létalite sur 10 souris Mâles
  mortality at 360 h: 10%
[5]; 3000 mg/kg, 3000 mg/kg IP, read-out: Létalite sur 10 souris Femelles
  mortality at 360 h: 60%
[5]; 3000 mg/kg, 3000 mg/kg IP, read-out: Létalite sur 10 souris Mâles
  mortality at 360 h: 30%
[5]; 3500 mg/kg, 3500 mg/kg IP, read-out: Létalite sur 10 souris Femelles
  mortality at 360 h: 80%
[5]; 3500 mg/kg, 3500 mg/kg IP, read-out: Létalite sur 10 souris Mâles
  mortality at 360 h: 50%
[5]; 4000 mg/kg, 4000 mg/kg IP, read-out: Létalite sur 10 souris Femelles
  mortality at 360 h: 100%
[5]; 4000 mg/kg, 4000 mg/kg IP, read-out: Létalite sur 10 souris Mâles
  mortality at 360 h: 80%
[5]; 4500 mg/kg, 4500 mg/kg IP, read-out: Létalite sur 10 souris Femelles
  mortality at 360 h: 100%
[5]; 4500 mg/kg, 4500 mg/kg IP, read-out: Létalite sur 10 souris Mâles
  mortality at 360 h: 100%
[5]; 5000 mg/kg, 5000 mg/kg IP, read-out: Létalite sur 10 souris Femelles
  mortality at 360 h: 100%
[5]; 5000 mg/kg, 5000 mg/kg IP, read-out: Létalite sur 10 souris Mâles
  mortality at 360 h: 100%
[5]; Souris Femelles, method Behrens et Karber (B.K.)
  LD50 at 360 h: 3000 mg/kg
[5]; Souris Femelles, method Miller et Tainter (M.T.), confidence interval P = 0,05
  LD50 at 360 h: 3000 ± 145 mg/kg
[5]; Souris Mâles, method Behrens et Karber (B.K.)
  LD50 at 360 h: 3400 mg/kg
[5]; Souris Mâles, method Miller et Tainter (M.T.), confidence interval P = 0,05
  LD50 at 360 h: 3350 ± 190 mg/kg
[5]; voie intrapéritonéale, sex not specified, "de l'ordre de"
  LD50 at 360 h: ~3000 mg/kg
